According to paper PMC4086519, “Anti-Trichophyton Activity of Protocatechuates and Their Synergism with Fluconazole” (Evidence-based Complementary and Alternative Medicine : eCAM, 2014):
≈ marks a conversion by molar mass, not a printed value. Read-outs that look alike come from different tables or passages of the source.

Legend:
[1] = system: Trichophyton mentagrophytes; experiment: Broth microdilution MIC (CLSI M38-A2, modified); format: cell-based; conditions: 35°C, 7 days
Procedure: (§1) To evaluate its antifungal activity, […] of dermatophytes were tested: two clinical strains of Trichophyton rubrum (Tr1 and Tr2), Trichophyton rubrum ATCC MYA 3108, two clinical strains of Trichophyton mentagrophytes (Tm1 and Tm2), and Trichophyton mentagrophytes ATCC 40131 (Tm3). The microorganisms were obtained from the collection of the Clinical Mycology Laboratory of the Department of Clinical Analyses at the School of Pharmaceutical Sciences of Universidade Estadual Paulista (UNESP). The strains were cultivated on Sabouraud dextrose agar (Difco, BD Biosciences) and incubated at 28°C for 7-15 days. For all experiments, the strains were cultivated on Potato Dextrose Agar (Difco, BD Biosciences) and incubated at 28°C as described above or until sporulation. The dilution of the synthetic compounds was performed with DMSO (Synth, Diadema, Sao Paulo, Brazil) as described by Scorzoni et al.. […] The antifungal drugs were diluted according to the CLSI […]-A2 document. Stock solutions of Fluconazole (Sigma-Aldrich, St. Louis, MO, USA) were prepared, considering its power. Serial twofold dilutions were prepared according to the recommendations of Zhang and collaborators, with some modifications. The antifungal activity tests were performed using the broth microdilution method as described in […]-A2, a document produced by the Clinical and Laboratory Standards Institute (CLSI, 2008), with modifications. The medium used was RPMI 1640 with L-glutamine (Sigma-Aldrich, St. Louis, MO, USA) buffered to pH 7.0 with 0.165 M morpholinepropanesulfonic acid (MOPS) (Sigma-Aldrich, St. Louis, MO, USA), supplemented with 2% glucose. […] The suspension of conidia was then transferred to small sterile test tubes where they remained for 40 minutes to separate the microconidia, which were lighter and therefore present in the supernatant. […] These suspensions were diluted in RPMI 1640 (Sigma-Aldrich, St. […] Positive (100 μL of RPMI medium with 100 μL of inoculum) and negative (200 μL of RPMI) controls were included in all experiments. The plates were incubated with agitation at 35°C for 7 days. The MIC reading was performed by spectrophotometry at 490 nm.

Trichophyton rubrum [2] = experiment: Broth microdilution MIC (CLSI M38-A2, modified); format: cell-based; conditions: 35°C, 7 days
Procedure: as §1

[3] = system: Trichophyton mentagrophytes; experiment: Minimum fungicide concentration (MFC); format: cell-based
Procedure: (§2) A qualitative analysis of the fungal viability was performed by transferring a portion of the wells to a plate with Sabouraud (Difco, BD Biosciences) medium and incubating it at 35°C for the time determined for each fungal agent. […] A visual reading was performed to confirm the death or growth inhibition provided by fluconazole and the sixteen semisynthetic substances derived from protocatechuic acid.

Trichophyton rubrum [4] = experiment: Minimum fungicide concentration (MFC); format: cell-based
Procedure: as §2

[5] = system: Trichophyton mentagrophytes; experiment: Checkerboard synergism assay with fluconazole; format: cell-based; conditions: for MIC, substances alone: checkerboard, 168 hours
Procedure: (§3) The drug activity was assessed using a checkerboard method derived from a standardised procedure established by the National Committee for Clinical Laboratory Standards ([…]-A2). Briefly, the test was performed on the same medium used for susceptibility testing. Volumes of 50 μL of each drug in a concentration four times the final concentration were dispensed in 96-well plates ([…], Switzerland). To each well, 100 μL of the fungal suspension was added to produce a final concentration of 5.0 × 10^3 CFU/mL. As a negative control, we used 200 μL of RPMI, while as a positive control, we used 100 μL of RPMI medium with 100 μL of inoculum. The plates were incubated at 35°C, and the reading was completed after 168 hours. We conducted visual and spectrophotometric readings at 490 nm. To determine the effect of combinatorial fractions, we calculated the fractional inhibitory concentration (FIC). The FIC was calculated by taking the MIC of the substance in combination/MIC of the substance alone. The sum of the fractional inhibitory concentration (FIC) of each substance consists of the fractional inhibitory concentration index: (the MIC of drug A in combination/the MIC of drug A alone) + (the MIC of drug B in combination/the MIC of drug B alone).

Trichophyton rubrum [6] = experiment: Checkerboard synergism assay with fluconazole; format: cell-based; conditions: for MIC, substances alone: Tr1, checkerboard, 168 hours
Procedure: as §3

[7] = system: NOK (oral human keratinocyte) cell lines; experiment: Sulphorhodamine B cytotoxicity assay; format: cell-based; conditions: NOK cells, 24 hours
Procedure: The cytotoxicity of sixteen semisynthetic compounds derived from protocatechuic acid was assessed using a sulphorhodamine B assay in NOK (oral human keratinocyte) cell lines obtained from the American Type Culture Collection (Manassas, VA, USA). The strains were maintained in bottles appropriate for cell culture with keratinocyte serum free medium (Gibco, Life Technologies) and incubated in standard conditions of 37°C and 5% CO2. Cell concentrations ranging from 2.5 to 5.0 × 10^4 cells/mL were used for the formation of cell monolayers. The concentrations of pure substances were kept in contact with the cells for 24 hours. After the incubation period, the cells were treated with the sulphorhodamine B reagent (Sigma-Aldrich, St. Louis, MO, USA) as previously described by Skehan et al., with some modifications.

Saccharomyces cerevisiae = system: Saccharomyces cerevisiae; set-up: method as in PMID 14592492; conditions: cited from earlier work
[8] = Tm3, T. mentagrophytes ATCC 40131
[9] = Tr1, T. rubrum clinical isolate
[10] = Tr2, T. rubrum clinical isolate

| SMILES | MIC ([1]; Tm1, clinical isolate) [µg/mL] | MIC ([1]; Tm2, clinical isolate) [µg/mL] | MIC [1, 8] [µg/mL] | MIC (Trichophyton rubrum [2]; [9]) [µg/mL] | MIC (Trichophyton rubrum [2]; [10]) [µg/mL] | MIC (Trichophyton rubrum [2]; Tr3, T. rubrum ATCC MYA 3108) [µg/mL] | MFC ([3]; Tm1, clinical isolate) [µg/mL] | MFC ([3]; Tm2, clinical isolate) [µg/mL] | MFC [3, 8] [µg/mL] | MFC (Trichophyton rubrum [4]; [9]) [µg/mL] | MFC (Trichophyton rubrum [4]; [10]) [µg/mL] | MFC (Trichophyton rubrum [4]; Tr3, T. rubrum ATCC MYA 3108) [µg/mL] | MIC of the protocatechuate, substances combined [5] [µg/mL] | association type (in words) [5] | MIC, substances alone ([5]; Tm1) [µg/mL] | MIC, substances alone ([5]; Tm3 (ATCC 40131)) [µg/mL] | FIC index (Trichophyton rubrum [6]) | association type (in words) (Trichophyton rubrum [6]) | MIC, substances alone (Trichophyton rubrum [6]) [µg/mL] | Cytotoxicity IC50 [7] [µg/mL] | also measured |
| --- | --- | --- | --- | --- | --- | --- | --- | --- | --- | --- | --- | --- | --- | --- | --- | --- | --- | --- | --- | --- | --- |
| CCCCCCCCOC(=O)c1ccc(O)c(O)c1 [Protocatechuate octyl, octyl protocatechuate] | 1.95 (≈ 7.32 µM) | 1.95 (≈ 7.32 µM) | 3.9 (≈ 14.6 µM) | 1.95 (≈ 7.32 µM) | 7.8 (≈ 29.3 µM) | 0.97 (≈ 3.64 µM) | 3.90 (≈ 14.6 µM) | 1.95 (≈ 7.32 µM) | 3.9 (≈ 14.6 µM) | 1.95 (≈ 7.32 µM) | 7.8 (≈ 29.3 µM) | 1.95 (≈ 7.32 µM) | 0.03 | additive | 1.9 | 3.9 | 1.0 | additive | 1.9 | 54.0 | FIC index [5]: 0.72; MIC of the protocatechuate, substances combined (Trichophyton rubrum [6]): 0.06 µg/mL; reduction in the MIC of the protocatechuate (Trichophyton rubrum [6]): 31.66 times; fungicidal activity (Saccharomyces cerevisiae): fungicidal activity |
| CCCCCCCCCOC(=O)c1ccc(O)c(O)c1 [Protocatechuate nonyl, nonyl protocatechuate] | 3.9 (≈ 13.9 µM) | 3.9 (≈ 13.9 µM) | 3.9 (≈ 13.9 µM) | 1.95 (≈ 6.96 µM) | 3.9 (≈ 13.9 µM) | 1.95 (≈ 6.96 µM) | 3.9 (≈ 13.9 µM) | 3.9 (≈ 13.9 µM) | 3.9 (≈ 13.9 µM) | 1.95 (≈ 6.96 µM) | 3.9 (≈ 13.9 µM) | 3.90 (≈ 13.9 µM) | 0.03 | additive | 3.9 | 3.9 | 1.0 | additive | 1.9 | 52.1 | FIC index [5]: 1.0; MIC of fluconazole, substances combined [5]: 0.5 µg/mL; reduction in the MIC of the protocatechuate [5]: 130 fold; MIC of the protocatechuate, substances combined (Trichophyton rubrum [6]): 0.03 µg/mL; reduction in the MIC of the protocatechuate (Trichophyton rubrum [6]): 63.33 times |
| CCCCCOC(=O)c1ccc(O)c(O)c1 [Protocatechuate pentyl, pentyl protocatechuate] | 3.90 (≈ 17.4 µM) | 7.8 (≈ 34.8 µM) | 7.8 (≈ 34.8 µM) | 7.8 (≈ 34.8 µM) | 7.8 (≈ 34.8 µM) | 7.8 (≈ 34.8 µM) | 15.6 (≈ 69.6 µM) | 7.8 (≈ 34.8 µM) | 7.8 (≈ 34.8 µM) | 7.8 (≈ 34.8 µM) | 7.8 (≈ 34.8 µM) | 7.8 (≈ 34.8 µM) | 0.03 | additive | 3.9 | 7.8 | 1.0 | additive | 7.8 | 57.0 | FIC index [5]: 1.0; MIC of fluconazole, substances combined [5]: 0.5 µg/mL; reduction in the MIC of the protocatechuate [5]: 130 fold; MIC of fluconazole, substances combined (Trichophyton rubrum [6]): 0.12 µg/mL; MIC of the protocatechuate, substances combined (Trichophyton rubrum [6]): 7.8 µg/mL; reduction in the MIC of fluconazole (Trichophyton rubrum [6]): 16.66 times |
| CCCCCCCOC(=O)c1ccc(O)c(O)c1 [Protocatechuate heptyl, protocatechuate heptyl] | 3.9 (≈ 15.5 µM) | 0.97 (≈ 3.84 µM) | 3.9 (≈ 15.5 µM) | 1.95 (≈ 7.73 µM) | 1.95 (≈ 7.73 µM) | 1.95 (≈ 7.73 µM) | 3.9 (≈ 15.5 µM) | 0.97 (≈ 3.84 µM) | 3.9 (≈ 15.5 µM) | 1.95 (≈ 7.73 µM) | 1.95 (≈ 7.73 µM) | 1.95 (≈ 7.73 µM) | 0.03 | synergistic | 3.9 | 3.9 | 1.0 | additive | 1.9 | 78.1 | reduction in the MIC of fluconazole [5]: fourfold; FIC index ([5]; listed as 9): 0.48; reduction in the MIC of fluconazole ([5]; listed as 9): four- |
| CCCCCCOC(=O)c1ccc(O)c(O)c1 [Protocatechuate hexyl, hexyl protocatechuate] | 1.95 (≈ 8.18 µM) | 3.9 (≈ 16.4 µM) | 3.90 (≈ 16.4 µM) | 3.9 (≈ 16.4 µM) | 1.95 (≈ 8.18 µM) | 3.9 (≈ 16.4 µM) | 3.90 (≈ 16.4 µM) | 3.9 (≈ 16.4 µM) | 7.80 (≈ 32.7 µM) | 3.9 (≈ 16.4 µM) | 3.90 (≈ 16.4 µM) | 3.9 (≈ 16.4 µM) | 0.03 | additive | 1.9 | 3.9 | 1.1 | indifferent | 3.9 | 66.5 | FIC index [5]: 0.72; MIC of the protocatechuate, substances combined (Trichophyton rubrum [6]): 0.48 µg/mL; reduction in the MIC of the protocatechuate (Trichophyton rubrum [6]): 8.125 times |
